Structures can show the parent of a compound that is named as a salt.
Assay: colour stability in pharmaceutical formulations (undesired colors due to degradation products)
Type: physicochemical
Details: particularly suppositories
Source text: Said colors, due to degradation products, are evidenced also when using the hydrochloride, whereas they are completely removed when a salt according to the invention is used.

For OCC(O)CN1CCN(c2ccccc2)CC1 (stereo not shown) [hydrochloride], which “undesired colors occuring in the long run” value is on record?
Its value is “evidenced”.

Reference: EP0348713A1, “(R,S)-3-(4-phenyl-1-piperazinyl)-1,2-propanediol salts” (DOTT. FORMENTI S.P.A. INDUSTRIA CHIMICA E FARMACEUTICA, priority 1988, dated 1990)
